{"source": "patent US11541028B2", "about": "“Peptide pharmaceuticals for treatment of NASH and other disorders” (Mederis Diabetes LLC, priority 2018, dated 2023)", "key": {"[1]": {"biological_target": "T1, human GLP-1 receptor (Homo sapiens, UniProt P43220)", "T1 construct": "host or cells: CHO cells", "T1 sequence (P43220 24-463)": "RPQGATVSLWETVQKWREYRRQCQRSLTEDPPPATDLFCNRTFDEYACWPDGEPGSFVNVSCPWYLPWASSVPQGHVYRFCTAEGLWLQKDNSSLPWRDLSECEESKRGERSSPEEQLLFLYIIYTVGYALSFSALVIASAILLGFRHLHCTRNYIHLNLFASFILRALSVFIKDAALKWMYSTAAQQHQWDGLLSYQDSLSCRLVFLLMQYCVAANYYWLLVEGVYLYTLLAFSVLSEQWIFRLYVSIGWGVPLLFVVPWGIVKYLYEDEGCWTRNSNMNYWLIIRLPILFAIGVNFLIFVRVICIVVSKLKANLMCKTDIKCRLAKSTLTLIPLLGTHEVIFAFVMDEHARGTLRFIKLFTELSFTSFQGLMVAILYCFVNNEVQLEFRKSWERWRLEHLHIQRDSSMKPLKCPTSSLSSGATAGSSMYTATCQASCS", "assay": "DiscoveRx LeadHunter cellular assay, cAMP stimulation, GLP-1 receptor in CHO cells", "assay_type": "cell-based", "settings": "human GLP-1 receptor in CHO cells (DiscoveRx); read-out: EC50 cAMP GLP-1 R", "description": "(§1) A further series of cellular assays was carried out with standard cellular assays (DiscoveRx, LeadHunter assays) using readout of cAMP stimulation or arrestin activation. Compounds were weighed precisely in an amount of about 1 mg and shipped to DiscoveRx for dilution and assay."}, "[2]": {"biological_target": "T2, human glucagon receptor (Homo sapiens, UniProt P47871)", "T2 construct": "host or cells: CHO cells", "T2 sequence (P47871 26-477)": "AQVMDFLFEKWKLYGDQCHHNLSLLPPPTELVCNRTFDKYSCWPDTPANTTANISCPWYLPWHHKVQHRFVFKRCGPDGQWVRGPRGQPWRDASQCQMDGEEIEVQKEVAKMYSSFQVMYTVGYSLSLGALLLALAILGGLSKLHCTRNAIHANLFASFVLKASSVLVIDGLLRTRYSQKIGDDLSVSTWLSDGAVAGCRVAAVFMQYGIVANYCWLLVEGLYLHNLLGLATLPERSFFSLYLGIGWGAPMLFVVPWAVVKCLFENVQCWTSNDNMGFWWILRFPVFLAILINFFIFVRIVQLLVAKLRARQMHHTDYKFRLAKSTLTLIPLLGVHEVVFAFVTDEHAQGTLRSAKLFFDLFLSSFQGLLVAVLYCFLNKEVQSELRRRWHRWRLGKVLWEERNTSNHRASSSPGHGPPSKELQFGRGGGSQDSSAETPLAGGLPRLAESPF", "assay": "DiscoveRx LeadHunter cellular assay, cAMP stimulation, glucagon receptor in CHO cells", "assay_type": "cell-based", "description": "as §1"}}, "note": "Read-outs that look alike come from different tables or passages of the source.", "data": [{"smiles": "CCCCCCCCO[C@@H]1O[C@H](C(=O)NCCCC[C@H](NC(=O)[C@@H](NC(=O)[C@H](Cc2ccccc2)NC(=O)[C@H](CCC(=O)O)NC(=O)[C@@H]2CCCCNC(=O)CC[C@H](NC(=O)[C@H](CC(=O)O)NC(=O)[C@H](CC(C)C)NC(=O)[C@H](Cc3ccc(O)cc3)NC(=O)[C@H](CCCCN)NC(=O)[C@H](CO)NC(=O)[C@H](Cc3ccc(O)cc3)NC(=O)[C@H](CC(=O)O)NC(=O)[C@H](CO)NC(=O)[C@@H](NC(=O)[C@H](Cc3ccccc3)NC(=O)[C@@H](NC(=O)CNC(=O)[C@H](CCC(N)=O)NC(=O)C(C)(C)NC(=O)[C@@H](N)Cc3c[nH]cn3)[C@@H](C)O)[C@@H](C)O)C(=O)N[C@@H](CCC(N)=O)C(=O)N[C@@H](C)C(=O)N[C@@H](C)C(=O)N2)[C@@H](C)CC)C(=O)N[C@@H](Cc2c[nH]c3ccccc23)C(=O)N[C@@H](CC(C)C)C(=O)N[C@@H](CC(C)C)C(=O)N[C@@H](CCC(N)=O)C(=O)N[C@H](C(=O)O)[C@@H](C)O)[C@@H](O)[C@H](O)[C@H]1O", "note": "[EU-A1679]", "values": [{"measurement": "EC50", "setting": "[1]", "result": 0.009, "unit": "nM"}, {"measurement": "EC50", "setting": "[2]", "result": 0.14, "unit": "nM"}]}, {"smiles": "CCCCCCCCCCO[C@@H]1O[C@H](C(=O)NCCCC[C@H](NC(=O)[C@@H](NC(=O)[C@H](Cc2ccccc2)NC(=O)[C@H](CCC(=O)O)NC(=O)[C@@H]2CCCCNC(=O)CC[C@H](NC(=O)[C@H](CC(=O)O)NC(=O)[C@H](CC(C)C)NC(=O)[C@H](Cc3ccc(O)cc3)NC(=O)[C@H](CCCCN)NC(=O)[C@H](CO)NC(=O)[C@H](Cc3ccc(O)cc3)NC(=O)[C@H](CC(=O)O)NC(=O)[C@H](CO)NC(=O)[C@@H](NC(=O)[C@H](Cc3ccccc3)NC(=O)[C@@H](NC(=O)CNC(=O)[C@H](CCC(N)=O)NC(=O)C(C)(C)NC(=O)[C@@H](N)Cc3c[nH]cn3)[C@@H](C)O)[C@@H](C)O)C(=O)N[C@@H](CCC(N)=O)C(=O)N[C@@H](C)C(=O)N[C@@H](C)C(=O)N2)[C@@H](C)CC)C(=O)N[C@@H](Cc2c[nH]c3ccccc23)C(=O)N[C@@H](CC(C)C)C(=O)N[C@@H](CC(C)C)C(=O)N[C@@H](CCC(N)=O)C(=O)N[C@H](C(=O)O)[C@@H](C)O)[C@@H](O)[C@H](O)[C@H]1O", "note": "[EU-A1680]", "values": [{"measurement": "EC50", "setting": "[1]", "result": 0.026, "unit": "nM"}, {"measurement": "EC50", "setting": "[2]", "result": 0.114, "unit": "nM"}]}, {"smiles": "CCCCCCCCCCCCO[C@@H]1O[C@H](C(=O)NCCCC[C@H](NC(=O)[C@@H](NC(=O)[C@H](Cc2ccccc2)NC(=O)[C@H](CCC(=O)O)NC(=O)[C@@H]2CCCCNC(=O)CC[C@H](NC(=O)[C@H](CC(=O)O)NC(=O)[C@H](CC(C)C)NC(=O)[C@H](Cc3ccc(O)cc3)NC(=O)[C@H](CCCCN)NC(=O)[C@H](CO)NC(=O)[C@H](Cc3ccc(O)cc3)NC(=O)[C@H](CC(=O)O)NC(=O)[C@H](CO)NC(=O)[C@@H](NC(=O)[C@H](Cc3ccccc3)NC(=O)[C@@H](NC(=O)CNC(=O)[C@H](CCC(N)=O)NC(=O)C(C)(C)NC(=O)[C@@H](N)Cc3c[nH]cn3)[C@@H](C)O)[C@@H](C)O)C(=O)N[C@@H](CCC(N)=O)C(=O)N[C@@H](C)C(=O)N[C@@H](C)C(=O)N2)[C@@H](C)CC)C(=O)N[C@@H](Cc2c[nH]c3ccccc23)C(=O)N[C@@H](CC(C)C)C(=O)N[C@@H](CC(C)C)C(=O)N[C@@H](CCC(N)=O)C(=O)N[C@H](C(=O)O)[C@@H](C)O)[C@@H](O)[C@H](O)[C@H]1O", "note": "[EU-A1681]", "values": [{"measurement": "EC50", "setting": "[1]", "result": 0.009, "unit": "nM"}, {"measurement": "EC50", "setting": "[2]", "result": 0.132, "unit": "nM"}]}, {"smiles": "CCCCCCCCCCCCCCO[C@@H]1O[C@H](C(=O)NCCCC[C@H](NC(=O)[C@@H](NC(=O)[C@H](Cc2ccccc2)NC(=O)[C@H](CCC(=O)O)NC(=O)[C@@H]2CCCCNC(=O)CC[C@H](NC(=O)[C@H](CC(=O)O)NC(=O)[C@H](CC(C)C)NC(=O)[C@H](Cc3ccc(O)cc3)NC(=O)[C@H](CCCCN)NC(=O)[C@H](CO)NC(=O)[C@H](Cc3ccc(O)cc3)NC(=O)[C@H](CC(=O)O)NC(=O)[C@H](CO)NC(=O)[C@@H](NC(=O)[C@H](Cc3ccccc3)NC(=O)[C@@H](NC(=O)CNC(=O)[C@H](CCC(N)=O)NC(=O)C(C)(C)NC(=O)[C@@H](N)Cc3c[nH]cn3)[C@@H](C)O)[C@@H](C)O)C(=O)N[C@@H](CCC(N)=O)C(=O)N[C@@H](C)C(=O)N[C@@H](C)C(=O)N2)[C@@H](C)CC)C(=O)N[C@@H](Cc2c[nH]c3ccccc23)C(=O)N[C@@H](CC(C)C)C(=O)N[C@@H](CC(C)C)C(=O)N[C@@H](CCC(N)=O)C(=O)N[C@H](C(=O)O)[C@@H](C)O)[C@@H](O)[C@H](O)[C@H]1O", "note": "[EU-A1682]", "values": [{"measurement": "EC50", "setting": "[1]", "result": 0.21, "unit": "nM"}, {"measurement": "EC50", "setting": "[2]", "result": 1.26, "unit": "nM"}]}, {"smiles": "CCCCCCCCCCO[C@@H]1O[C@H](C(=O)NCCCC[C@H](N)C(=O)NCCCC[C@H](NC(=O)[C@@H](NC(=O)[C@H](Cc2ccccc2)NC(=O)[C@H](CCC(=O)O)NC(=O)[C@@H]2CCCCNC(=O)CC[C@H](NC(=O)[C@H](CC(=O)O)NC(=O)[C@H](CC(C)C)NC(=O)[C@H](Cc3ccc(O)cc3)NC(=O)[C@H](CCCCN)NC(=O)[C@H](CO)NC(=O)[C@H](Cc3ccc(O)cc3)NC(=O)[C@H](CC(=O)O)NC(=O)[C@H](CO)NC(=O)[C@@H](NC(=O)[C@H](Cc3ccccc3)NC(=O)[C@@H](NC(=O)CNC(=O)[C@H](CCC(N)=O)NC(=O)C(C)(C)NC(=O)[C@@H](N)Cc3c[nH]cn3)[C@@H](C)O)[C@@H](C)O)C(=O)N[C@@H](CCC(N)=O)C(=O)N[C@@H](C)C(=O)N[C@@H](C)C(=O)N2)[C@@H](C)CC)C(=O)N[C@@H](Cc2c[nH]c3ccccc23)C(=O)N[C@@H](CC(C)C)C(=O)N[C@@H](CC(C)C)C(=O)N[C@@H](CCC(N)=O)C(=O)N[C@H](C(N)=O)[C@@H](C)O)[C@@H](O)[C@H](O)[C@H]1O", "note": "[EU-A1710]", "values": [{"measurement": "EC50", "setting": "[1]", "result": 0.026, "unit": "nM"}, {"measurement": "EC50", "setting": "[2]", "result": 0.065, "unit": "nM"}]}, {"smiles": "CCCCCCCCCCCCO[C@@H]1O[C@H](C(=O)NCCCC[C@H](N)C(=O)NCCCC[C@H](NC(=O)[C@@H](NC(=O)[C@H](Cc2ccccc2)NC(=O)[C@H](CCC(=O)O)NC(=O)[C@@H]2CCCCNC(=O)CC[C@H](NC(=O)[C@H](CC(=O)O)NC(=O)[C@H](CC(C)C)NC(=O)[C@H](Cc3ccc(O)cc3)NC(=O)[C@H](CCCCN)NC(=O)[C@H](CO)NC(=O)[C@H](Cc3ccc(O)cc3)NC(=O)[C@H](CC(=O)O)NC(=O)[C@H](CO)NC(=O)[C@@H](NC(=O)[C@H](Cc3ccccc3)NC(=O)[C@@H](NC(=O)CNC(=O)[C@H](CCC(N)=O)NC(=O)C(C)(C)NC(=O)[C@@H](N)Cc3c[nH]cn3)[C@@H](C)O)[C@@H](C)O)C(=O)N[C@@H](CCC(N)=O)C(=O)N[C@@H](C)C(=O)N[C@@H](C)C(=O)N2)[C@@H](C)CC)C(=O)N[C@@H](Cc2c[nH]c3ccccc23)C(=O)N[C@@H](CC(C)C)C(=O)N[C@@H](CC(C)C)C(=O)N[C@@H](CCC(N)=O)C(=O)N[C@H](C(N)=O)[C@@H](C)O)[C@@H](O)[C@H](O)[C@H]1O", "note": "[EU-A1711]", "values": [{"measurement": "EC50", "setting": "[1]", "result": 0.009, "unit": "nM"}, {"measurement": "EC50", "setting": "[2]", "result": 0.026, "unit": "nM"}]}, {"smiles": "CCCCCCCCCCCCCCO[C@@H]1O[C@H](C(=O)NCCCC[C@H](N)C(=O)NCCCC[C@H](NC(=O)[C@@H](NC(=O)[C@H](Cc2ccccc2)NC(=O)[C@H](CCC(=O)O)NC(=O)[C@@H]2CCCCNC(=O)CC[C@H](NC(=O)[C@H](CC(=O)O)NC(=O)[C@H](CC(C)C)NC(=O)[C@H](Cc3ccc(O)cc3)NC(=O)[C@H](CCCCN)NC(=O)[C@H](CO)NC(=O)[C@H](Cc3ccc(O)cc3)NC(=O)[C@H](CC(=O)O)NC(=O)[C@H](CO)NC(=O)[C@@H](NC(=O)[C@H](Cc3ccccc3)NC(=O)[C@@H](NC(=O)CNC(=O)[C@H](CCC(N)=O)NC(=O)C(C)(C)NC(=O)[C@@H](N)Cc3c[nH]cn3)[C@@H](C)O)[C@@H](C)O)C(=O)N[C@@H](CCC(N)=O)C(=O)N[C@@H](C)C(=O)N[C@@H](C)C(=O)N2)[C@@H](C)CC)C(=O)N[C@@H](Cc2c[nH]c3ccccc23)C(=O)N[C@@H](CC(C)C)C(=O)N[C@@H](CC(C)C)C(=O)N[C@@H](CCC(N)=O)C(=O)N[C@H](C(N)=O)[C@@H](C)O)[C@@H](O)[C@H](O)[C@H]1O", "note": "[EU-A1712]", "values": [{"measurement": "EC50", "setting": "[1]", "result": 0.037, "unit": "nM"}, {"measurement": "EC50", "setting": "[2]; read-out: EC50 cAMP Glucagon R, human glucagon receptor in CHO cells (DiscoveRx)", "result": 0.175, "unit": "nM"}]}]}
